Assay [1] deals with T1, hpol κ (Homo sapiens, UniProt Q9UBT6).
T1 sequence (Q9UBT6 19-526): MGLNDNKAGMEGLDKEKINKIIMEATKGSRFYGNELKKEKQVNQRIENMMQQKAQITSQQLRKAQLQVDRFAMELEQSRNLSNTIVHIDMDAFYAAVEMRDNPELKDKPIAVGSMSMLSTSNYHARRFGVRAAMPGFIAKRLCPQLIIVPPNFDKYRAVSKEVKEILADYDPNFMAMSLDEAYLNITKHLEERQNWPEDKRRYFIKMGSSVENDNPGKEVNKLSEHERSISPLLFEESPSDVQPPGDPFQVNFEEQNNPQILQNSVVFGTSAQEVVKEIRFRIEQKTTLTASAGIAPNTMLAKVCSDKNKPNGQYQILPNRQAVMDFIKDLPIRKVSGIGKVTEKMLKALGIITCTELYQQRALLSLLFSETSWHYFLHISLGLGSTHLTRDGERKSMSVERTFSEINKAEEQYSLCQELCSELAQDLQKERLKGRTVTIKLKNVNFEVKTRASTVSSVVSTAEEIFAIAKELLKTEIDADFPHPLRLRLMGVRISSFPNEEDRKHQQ
Kind of assay: Fluorescence-based (TAMRA/BHQ strand displacement) DNA polymerase activity assay.

The test system of assay [2] is MCF7 cells. Kind of assay: BrdU ssDNA / propidium iodide flow cytometry. The format is cell-based. As to conditions: PNR-7-48 0.5 μM + Mirin 100 μM, 48 hours. On the procedure: MCF7 cells were plated in 60 mm dishes at a confluency of 300,000 cells per dish and incubated overnight. Cells were treated the next day with BrdU (10 μM). The compounds were diluted in DMSO and added to the media at a final concentration of PNR-7-48 (0.5 μM) and Mirin (100 μM). The final concentration of DMSO was 0.1% (v/v). After 48 hours of treatment, media was removed and cells were washed in 1×PBS and trypsinized. Cells were then resuspended in media and centrifuged at 1500 rpm (calculate relative centrifugal force, RCF) for 5 minutes. The supernatant was removed, and again cells were washed and centrifuged. The supernatant was discarded and cells were resuspended in ice-cold 70% (v/v) ethanol prepared in 1×PBS while being vortexed. After overnight fixing at 4° C., cells were vortexed and centrifuged at 3000 rpm (RCF) for 10 minutes. Ethanol was removed leaving residual amounts for cell resuspension by vortexing. Fixed cells were stained with fluorescent anti-BrdU antibodies (FITC mouse anti-BrdU kit; 556028; BD) without prior acid treatment to detect only ssDNA. To confirm that the experimental cells had incorporated BrdU, aliquots of all nuclei were also denatured using HCL and then neutralized with sodium borate before staining with the anti-BrdU antibody. […] Samples were analyzed using the BD FACSCalibur Flow Cytometer in the UAMS Flow Cytometry Core. […]
(In flow cytometry, cells or beads pass a laser one at a time.)

Like-named read-outs stand apart in the source and are kept apart here.

As usually defined, the IC50 is the concentration that inhibits the measured activity by half. Turning to `Cl.[H]/N=C(\N)NN=Cc1cn(C(=O)c2cccc3ccccc23)c2ccc(Cl)cc12` [IAG-10, (E)-2-((1-(1-naphthoyl)-5-chloro-1H-indol-3-y1)methylene)hydrazine-1-carboximidamide hydrochloride], in assay [1] (10 μM, 25 nM hpol κ, comparison with A, B, X family pols), the “polymerase activity relative to DMSO control” value is listed as “only hpol κ activity was inhibited”. In addition, the “% Activity Mean (hpol κ activity)” value in assay [1] (IAG compounds, 40 μM, rate relative to DMSO control, three independent experiments) was 0.0%. For the same molecule, the “specificity for hpol κ over η” value in assay [1] (after altering the reaction conditions (lower enzyme and DNA)) is ~ 30 fold; in assay [1] (before altering the reaction conditions), ~ 2 fold. For the same molecule, the IC50 turned out to be 7.2 µM in assay [1] (read-out: IC50 against hpol κ, structure-activity study, 1 nM hpol κ, 50 nM DNA); 0.72 µM in assay [1] (read-out: IC50 for inhibition of hpol κ, 0.5 nM DNA, 0.1 nM hpol κ, 95% confidence interval in parentheses); 1.1 µM in assay [1] (read-out: IC50 for inhibition of hpol κ, 1 nM DNA, 95% confidence interval in parentheses); 1.4 µM in assay [1] (read-out: IC50 for inhibition of hpol κ, 2.5 nM DNA, 95% confidence interval in parentheses); 8.9 µM in assay [1] (read-out: IC50 for inhibition of hpol κ, 10 nM DNA, 95% confidence interval in parentheses); 8.9 µM in assay [1] (read-out: IC50 for inhibition of hpol κ, 25 nM DNA, 95% confidence interval in parentheses). For the same molecule, the IC50 in assay [1] (read-out: IC50 for inhibition of hpol κ, 50 nM DNA, 95% confidence interval in parentheses) was 7.2 µM. In addition, in assay [1] (steady-state kinetics with varying inhibitor concentration), the “turnover number (kcat), hpol κ-catalyzed dTTP insertion” value is given as “sharp decrease”. Moreover, the “cell death (sub-G1 cells)” value in assay [2] was “increases”. Besides, the “ssDNA gap formation (BrdU+ cells)” value in assay [2] was “increases”.

The record behind these values is US12685733B2, “Indole molecules and use thereof in the inhibition of DNA polymerases” (BioVentures, LLC, priority 2019, dated 2026).
